Laboratory results as given in US9024041B2, “P38 MAP kinase inhibitors” (Respivert Ltd., priority 2010, dated 2015).

Columns and labels:
[1] = molecular target: T1, p38 MAPKα isoform (MAPK14: Invitrogen) (Homo sapiens, UniProt Q16539); assay: p38 MAPKα enzyme inhibition assay (FRET, Z-LYTE, via MAPKAP-K2 activation); format: biochemical; details: 2 hr pre-incubation, ATP 10.0 μM; read-out: Enzyme Inhibition IC50 p38α
T1 construct: purchased Invitrogen
Experimental: The enzyme inhibitory activities of compounds disclosed herein were determined by fluorescence resonance energy transfer (FRET) using synthetic peptides labelled with both donor and acceptor fluorophores (Z-LYTE, Invitrogen Ltd., Paisley, UK). Recombinant, phosphorylated p38 MAPKγ (MAPK12:Invitrogen) was diluted in HEPES buffer, mixed with the test compound at the desired final concentrations and incubated for 2 hr at RT. The FRET peptide (2 μM) and ATP (100 μM) were added to the enzyme/compound mixture and incubated for 1 hr. Development reagent (protease) was added for 1 hr prior to detection in a fluorescence microplate reader (Varioskan® Flash, ThermoFisher Scientific). The site-specific protease cleaves non-phosphorylated peptide only and eliminates the FRET signal. Phosphorylation levels of each reaction were calculated using the ratio of coumarin emission (donor) over fluorescein emission (acceptor) for which high ratios indicate high phosphorylation and low ratios indicate low phosphorylation levels.
For the p38 MAPKα isoform (MAPK14: Invitrogen), enzyme activity was evaluated indirectly by determining the level of activation/phosphorylation of the down-stream molecule, MAPKAP-K2. The p38 MAPKα protein was mixed with the test compound for 2 hr at RT. […] Development reagent was then added and the mixture incubated for 1 hr before detection by fluorescence completed the assay protocol.

[2] = molecular target: T2, Recombinant, phosphorylated p38 MAPKγ (MAPK12:Invitrogen) (Homo sapiens, UniProt P53778); assay: p38 MAPKγ enzyme inhibition assay (FRET, Z-LYTE); format: biochemical; details: 2 hr pre-incubation, ATP 100 μM; read-out: Enzyme Inhibition IC50 p38γ
T2 construct: purchased Invitrogen
T2 sequence (P53778 1-367): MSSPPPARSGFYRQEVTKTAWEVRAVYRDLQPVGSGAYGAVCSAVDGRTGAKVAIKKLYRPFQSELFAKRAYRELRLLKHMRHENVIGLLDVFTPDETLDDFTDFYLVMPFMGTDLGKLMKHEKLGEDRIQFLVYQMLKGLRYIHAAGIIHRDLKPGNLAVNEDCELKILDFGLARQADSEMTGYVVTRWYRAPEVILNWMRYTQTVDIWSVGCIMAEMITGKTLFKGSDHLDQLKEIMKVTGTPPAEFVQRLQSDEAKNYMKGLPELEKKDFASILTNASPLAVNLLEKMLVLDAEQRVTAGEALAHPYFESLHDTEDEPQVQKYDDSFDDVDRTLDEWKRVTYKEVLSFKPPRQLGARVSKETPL

[3] = test system: LPS-induced TNFα release in THP-1 cells; assay: LPS-induced TNFα release in THP-1 cells; format: cell-based; details: Homo sapiens, 3 μg/mL LPS, 4 hr
Experimental: Cellular Potency as Determined by LPS-Induced TNFα Release in THP-1 Cells
THP-1 cells, a human monocytic cell line, were stimulated with 3 μg/mL of LPS (from E. Coli; 0111:B4, Sigma) for 4 hr and the supernatant collected for determination of the TNFα concentration by sandwich ELISA (Duo-set, R&D systems). The inhibition of TNFα production was calculated at each concentration by comparison with vehicle control. The 50% inhibitory concentration (IC50) was determined from the resultant concentration-response curve.

[4] = test system: LPS-induced TNFα release in d-U937 cells; assay: LPS-induced TNFα release in d-U937 cells; format: cell-based; details: Homo sapiens, dU937, 4 h; read-out: LPS/TNFα REC50 d-U937
Experimental: (§1) Cellular Potency as Determined by LPS-Induced TNFα/IL-8 Release in d-U937Cells
(§2) U937 cells, a human monocytic cell line, were differentiated to macrophage-type cells by incubation with phorbol myristate acetate (PMA; 100 ng/mL) for 48 to 72 hr. Cells were pre-incubated with final concentrations of test compound for 2 hr and were then stimulated with 0.1 μg/mL of LPS (from E. Coli: O111:B4, Sigma) for 4 hr. The supernatant was collected for determination of TNFα and IL-8 concentrations by sandwich ELISA (Duo-set, R&D systems). […] The relative 50% effective concentration (REC50) was determined from the resultant concentration-response curve. The inhibition of IL-8 production was calculated at each concentration of test compound by comparison with vehicle control. The 50% inhibitory concentration (IC50) was determined from the resultant concentration-response curve.

[5] = test system: LPS-induced IL-8 release in d-U937 cells; assay: LPS-induced IL-8 release in d-U937 cells; format: cell-based; details: Homo sapiens, dU937, 0.1 μg/mL LPS, 4 hr
Experimental: as §1, §2

[6] = test system: Poly I:C-induced ICAM-1 expression in BEAS2B cells; assay: Poly I:C-induced ICAM-1 induction in BEAS2B cells; format: cell-based; details: Homo sapiens, BEAS-2B, poly I:C 1 μg/mL, 18 hr, read-out: PolyI:C/ICAM1 IC50 BEAS2B
Experimental: Cellular Potency as Determined by Poly I:C-Induced ICAM-1 Induction in BEAS2B Cells
Poly I:C (1 μg/mL) (Invivogen Ltd., San Diego, Calif.) was transfected into BEAS2B cells (human bronchial epithelial cells, ATCC) with Oligofectamine (Invitrogen, Carlsbad, Calif.). Cells were pre-incubated with final concentrations of test compounds for 2 hr and the level of ICAM1 expression on the cell surface was determined by cell-based ELISA. At a time point 18 hr after poly I:C transfection, cells were fixed with 4% formaldehyde in PBS and then endogenous peroxidase was quenched by the addition of 0.1% sodium azide and 1% hydrogen peroxide. Cells were washed with wash-buffer (0.1% Tween in PBS: PBS-Tween). and after blocking the wells with 5% milk in PBS-Tween for 1 hr, the cells were incubated with anti-human ICAM-1 antibody (Cell Signaling Technology, Danvers, Mass.) in 1% BSA PBS overnight at 4° C. The cells were washed with PBS-Tween and incubated with the secondary antibody (HRP-conjugated anti-rabbit IgG, Dako Ltd., Glostrup, Denmark). The ICAM-1 signal was detected by adding substrate and reading the absorbance at 450 nm against a reference wavelength of 655 nm using a spectrophotometer. The cells were then washed with PBS-Tween and total cell numbers in each well were determined by reading absorbance at 595 nm after Crystal Violet staining and elution by 1% SDS solution. The measured OD 450-655 readings were corrected for cell number by dividing with the OD595 reading in each well. The inhibition of ICAM-1 expression was calculated at each concentration of test compound by comparison with vehicle control. The 50% inhibitory concentration (IC50) was determined from the resultant concentration-response curve.

[7] = test system: Differentiated U937 cells; assay: MTT assay: cell viability on exposure to test compounds; format: cell-based, human; details: percentage loss of cell viability vs vehicle, 1 μg/mL; for MTT Assay (Viability) 4 h d-U937: 5% FCS; for MTT Assay (Viability) 24 h d-U937: 10% FCS
Experimental: MTT Assay: Determination of Cell Viability on Exposure to Test Compounds
Differentiated U937 cells were pre-incubated with each test compound under two protocols: the first for 4 hr in 5% FCS and the second in 10% FCS for 24 h. The supernatant was replaced with 200 μL of new media and 10 μL of MTT stock solution (5 mg/mL) was added to each well. After incubation for 1 hr the media were removed, 200 μL of DMSO was added to each well and the plates were shaken lightly for 1 hr prior to reading the absorbance at 550 nm. The percentage loss of cell viability was calculated for each well relative to vehicle (0.5% DMSO) treatment. Consequently an apparent increase in cell viability for drug treatment relative to vehicle is tabulated as a negative percentage.

T1 sequence (Q16539 whole entry, canonical isoform): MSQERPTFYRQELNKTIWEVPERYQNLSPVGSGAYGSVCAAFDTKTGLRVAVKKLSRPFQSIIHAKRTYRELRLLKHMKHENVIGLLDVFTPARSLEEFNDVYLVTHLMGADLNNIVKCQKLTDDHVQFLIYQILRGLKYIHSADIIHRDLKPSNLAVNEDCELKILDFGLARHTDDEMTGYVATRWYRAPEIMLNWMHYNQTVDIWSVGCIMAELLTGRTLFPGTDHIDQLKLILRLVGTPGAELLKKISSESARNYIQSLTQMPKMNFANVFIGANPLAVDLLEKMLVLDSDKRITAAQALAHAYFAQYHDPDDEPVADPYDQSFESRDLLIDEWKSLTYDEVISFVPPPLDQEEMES

SMILES | IC50 [1] | IC50 [2] | IC50 [3] | EC50 [4] | IC50 [5] | IC50 [6] | MTT Assay (Viability) 4 h d-U937 [7] | MTT Assay (Viability) 24 h d-U937 [7]
COCC(=O)Nc1cc(Oc2ccc(NC(=O)Nc3cc(C(C)(C)C)nn3-c3ccc(N)cc3)c3ccccc23)ccn1 [Example 1, N-(4-(4-(3-(1-(4-Aminophenyl)-3-tert-butyl-1H-pyrazol-5-yl)ureido)naphthalen-1-yloxy)pyridin-2-yl)-2-methoxyacetamide] | 0.9 nM | 72.4 nM | 1 nM | 0.6 nM | 1 nM | 8.3 nM | −26.6% | 78.0%
COc1ccc(-n2nc(C(C)(C)C)cc2NC(=O)Nc2ccc(Oc3ccnc(NC(=O)CO)c3)c3ccccc23)cc1 [Example 4, N-(4-(4-(3-(3-tert-Butyl-1-(4-methoxyphenyl)-1H-pyrazol-5-yl)ureido)naphthalen-1-yloxy)pyridin-2-yl)-2-hydroxyacetamide] | 4.6 nM | 150 nM | 1.3 nM | 0.04 nM | 3 nM | 4 nM | −3.9% | −38.2%
COCC(=O)Nc1cc(Oc2ccc(NC(=O)Nc3cc(C(C)(C)C)nn3-c3ccc(O)cc3)c3ccccc23)ccn1 [Example 5, N-(4-((4-(3-(3-(tert-Butyl)-1-(4-hydroxyphenyl)-1H-pyrazol-5-yl)ureido)naphthalen-1-yl)oxy)pyridin-2-yl)-2-methoxyacetamide] | 1.7 nM | 88.9 nM | 0.4 nM | 0.66 nM | 0.7 nM | 6.7 nM | 4.5% | −19.9%
COc1ccc(-n2nc(C(C)(C)C)cc2NC(=O)Nc2ccc(Oc3ccnc(NC(=O)NC4CC4)c3)c3ccccc23)cc1 [Example 6, 1-(3-(tert-Butyl)-1-(4-methoxyphenyl)-1H-pyrazol-5-yl)-3-(4-(2-(3-cyclopropylureido)pyridin-4-yloxy)naphthalen-1-yl)urea] | 17.8 nM | 51.3 nM | 1.2 nM | 19.4 nM | 2.6 nM | 1 nM | −10.7% | −50.1%
CN(C)C(=O)Nc1cc(Oc2ccc(NC(=O)Nc3cc(C(C)(C)C)nn3-c3ccc(S(C)(=O)=O)cc3)c3ccccc23)ccn1 [Example 15, 3-(4-(4-(3-(3-tert-Butyl-1-(4-(methylsulfonyl)phenyl)-1H-pyrazol-5-yl)ureido)naphthalen-1-yloxy)pyridin-2-yl)-1,1-dimethylurea] | 23.6 nM | 81.5 nM | 1.5 nM | – | 2.4 nM | 16.3 nM | −15.4% | −66.2%
CC(C)(C)c1cc(NC(=O)Nc2ccc(Oc3ccnc(NC(=O)N4CCCC4)c3)c3ccccc23)n(-c2ccc(O)cc2)n1 [Example 35, N-(4-(4-(3-(3-tert-butyl-1-(4-hydroxyphenyl)-1H-pyrazol-5-yl)ureido)naphthalen-1-yloxy)pyridin-2-yl)pyrrolidine-1-carboxamide] | 11.3 nM | 324 nM | 1.6 nM | – | 1.9 nM | 2.1 nM | −15.4% | −41.3%
COCC(=O)Nc1cc(Oc2ccc(NC(=O)Nc3cc(C(C)(C)C)nn3-c3ccc(CO)c(OC)c3)c3ccccc23)ccn1 [Example 51, N-(4-(4-(3-(3-tert-butyl-1-(4-(hydroxymethyl)-3-methoxyphenyl)-1H-pyrazol-5-yl)ureido)naphthalen-1-yloxy)pyridin-2-yl)-2-methoxy acetamide] | 11.9 nM | 149 nM | 1.6 nM | – | 38.7 nM | 2.5 nM | −5.2% | 61.0%

Continued by falling IC50 [1], values first:

IC50 [1] | IC50 [2] | IC50 [3] | EC50 [4] | IC50 [5] | SMILES | IC50 [6] | MTT Assay (Viability) 4 h d-U937 [7] | MTT Assay (Viability) 24 h d-U937 [7]
15.5 nM | 58.2 nM | 1.5 nM | 1.9 nM | 3.3 nM | COCC(=O)Nc1cc(Oc2ccc(NC(=O)Nc3cc(C(C)(C)C)nn3-c3ccc(OC)cc3)c3ccccc23)ccn1 [Example 3, N-(4-((4-(3-(3-(tert-Butyl)-1-(4-methoxyphenyl)-1H-pyrazol-5-yl)ureido)naphthalen-1-yl)oxy)pyridin-2-yl)-2-methoxyacetamide] | 5.7 nM | −28.4% | −51.5%
13 nM | 42.3 nM | 1.3 nM | 0.4 nM | 7.2 nM | COCC(=O)Nc1cc(Oc2ccc(NC(=O)Nc3cc(C(C)(C)C)nn3-c3ccc(NS(C)(=O)=O)cc3)c3ccccc23)ccn1 [Example 2, N-(4-(4-(3-(3-tert-Butyl-1-(4-(methylsulfonamido)phenyl)-1H-pyrazol-5-yl)ureido)naphthalen-1-yloxy)pyridin-2-yl)-2-methoxyacetamide] | 4.1 nM | −13.2% | 15.1%
6.6 nM | 55 nM | 0.6 nM | – | 0.5 nM | COCC(=O)Nc1cc(Oc2ccc(NC(=O)Nc3cc(C(C)(C)C)nn3-c3cccs3)c3ccccc23)ccn1 [Example 56, N-(4-(4-(3-(3-tert-butyl-1-(thiophen-2-yl)-1H-pyrazol-5-yl)ureido)naphthalen-1-yloxy)pyridin-2-yl)-2-methoxyacetamide] | 13.4 nM | 4.8% | 43.1%
3.4 nM | 3010 nM | 0.9 nM | – | 0.7 nM | COCC(=O)Nc1cc(Oc2ccc(NC(=O)Nc3cc(C4(C)CC4)nn3-c3ccc(C)cc3)c3ccccc23)ccn1 [Example 25, 2-methoxy-N-(4-(4-(3-(3-(1-methylcyclopropyl)-1-p-tolyl-1H-pyrazol-5-yl)ureido)naphthalen-1-yloxy)pyridin-2-yl)acetamide] | 21.8 nM | −7.6% | 4.7%
